Our source for the IC50, inhibition and Ki values is ChEMBL document CHEMBL1139626, “Total asymmetric synthesis of (-)-conduramine B-1 and of its enantiomer. N-Benzyl derivatives of conduramine B-1 are beta-glucosidase inhibitors” (Bioorg Med Chem Lett, 2005).

Calls of active or inactive are those of the source. The rule behind the calls is not given here.

Experiment [1] is described as follows: Inhibitory concentration against Beta Glucosidase Almonds. Set-up: species or system Prunus dulcis.
Experiment [2] has as its target T1, Glucoamylase 1 (Rhizopus oryzae) (UniProt P07683).
T1 sequence (whole entry): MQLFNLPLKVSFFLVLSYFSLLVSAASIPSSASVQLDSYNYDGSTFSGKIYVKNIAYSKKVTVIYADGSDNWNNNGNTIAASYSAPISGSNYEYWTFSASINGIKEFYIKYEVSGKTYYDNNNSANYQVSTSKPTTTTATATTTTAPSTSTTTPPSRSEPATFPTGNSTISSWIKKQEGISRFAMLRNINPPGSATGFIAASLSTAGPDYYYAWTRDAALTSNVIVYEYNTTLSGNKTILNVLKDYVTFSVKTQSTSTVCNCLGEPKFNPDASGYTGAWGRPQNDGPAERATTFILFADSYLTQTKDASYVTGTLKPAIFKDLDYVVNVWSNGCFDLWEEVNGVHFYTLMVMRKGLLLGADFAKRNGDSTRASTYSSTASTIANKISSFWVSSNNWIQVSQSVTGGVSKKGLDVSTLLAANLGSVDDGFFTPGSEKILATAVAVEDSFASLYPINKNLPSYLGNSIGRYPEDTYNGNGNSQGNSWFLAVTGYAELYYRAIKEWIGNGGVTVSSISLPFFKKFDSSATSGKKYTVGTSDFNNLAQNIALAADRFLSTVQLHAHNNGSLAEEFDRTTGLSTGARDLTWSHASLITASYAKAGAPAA
Description: Inhibition against Amyloglucosidase from Rhizopus mold at 1 mM; (ni=no inhibition).

Experiment [3] concerns Prunus dulcis. In words: Percent inhibition against Beta Glucosidase from Almonds at 1 mM.
Experiment [4] has as its target T2, Exo-1,4-beta-xylosidase xlnD (Aspergillus niger) (UniProt O00089).
T2 sequence (whole entry): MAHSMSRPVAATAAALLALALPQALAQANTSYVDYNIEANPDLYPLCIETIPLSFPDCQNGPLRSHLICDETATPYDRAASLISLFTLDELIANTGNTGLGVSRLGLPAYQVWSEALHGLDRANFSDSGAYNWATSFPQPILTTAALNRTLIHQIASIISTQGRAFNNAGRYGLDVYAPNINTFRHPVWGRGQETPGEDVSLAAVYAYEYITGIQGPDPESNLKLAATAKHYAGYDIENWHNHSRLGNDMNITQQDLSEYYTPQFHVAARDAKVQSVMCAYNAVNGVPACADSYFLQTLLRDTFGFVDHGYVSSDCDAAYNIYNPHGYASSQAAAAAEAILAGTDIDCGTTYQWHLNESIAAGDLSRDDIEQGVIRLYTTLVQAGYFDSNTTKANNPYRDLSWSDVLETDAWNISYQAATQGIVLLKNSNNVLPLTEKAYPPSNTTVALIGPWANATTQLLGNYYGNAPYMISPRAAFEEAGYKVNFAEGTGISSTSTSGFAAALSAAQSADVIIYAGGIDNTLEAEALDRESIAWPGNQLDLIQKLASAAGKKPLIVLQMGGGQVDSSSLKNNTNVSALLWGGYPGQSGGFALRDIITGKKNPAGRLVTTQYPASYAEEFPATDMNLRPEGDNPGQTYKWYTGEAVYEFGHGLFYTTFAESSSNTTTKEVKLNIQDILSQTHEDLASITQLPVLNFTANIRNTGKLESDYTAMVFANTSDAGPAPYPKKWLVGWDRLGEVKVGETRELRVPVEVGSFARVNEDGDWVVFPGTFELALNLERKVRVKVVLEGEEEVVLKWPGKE
Description: Inhibition against Beta-xylosidase from Aspergillus niger at 1 mM; (ni=no inhibition).

The target of experiment [5] is Glucoamylase (Aspergillus niger) (UniProt P69328). In words: Inhibition against Amyloglucosidase from Aspergillus niger at 1 mM; (ni=no inhibition).
Glucoamylase (Aspergillus niger), sequence (P69328 whole entry): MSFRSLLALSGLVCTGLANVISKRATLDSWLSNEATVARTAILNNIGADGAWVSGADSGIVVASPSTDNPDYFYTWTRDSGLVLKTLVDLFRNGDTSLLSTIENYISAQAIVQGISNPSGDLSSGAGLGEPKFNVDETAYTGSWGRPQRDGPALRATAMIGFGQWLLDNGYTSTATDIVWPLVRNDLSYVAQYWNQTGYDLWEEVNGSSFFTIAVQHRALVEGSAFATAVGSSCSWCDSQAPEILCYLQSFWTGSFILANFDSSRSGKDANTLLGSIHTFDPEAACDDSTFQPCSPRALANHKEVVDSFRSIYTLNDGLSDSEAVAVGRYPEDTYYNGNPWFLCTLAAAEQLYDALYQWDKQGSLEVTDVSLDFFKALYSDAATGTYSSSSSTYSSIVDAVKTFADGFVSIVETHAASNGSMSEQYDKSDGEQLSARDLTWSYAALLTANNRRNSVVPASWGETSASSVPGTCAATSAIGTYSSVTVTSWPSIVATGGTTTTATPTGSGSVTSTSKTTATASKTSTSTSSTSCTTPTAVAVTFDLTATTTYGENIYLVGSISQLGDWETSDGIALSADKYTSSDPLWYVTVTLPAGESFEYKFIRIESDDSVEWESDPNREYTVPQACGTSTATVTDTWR
The target in experiment [6] is T3, Alpha-glucosidase (Oryza sativa Japonica Group) (UniProt Q9LGC6).
T3 sequence (whole entry): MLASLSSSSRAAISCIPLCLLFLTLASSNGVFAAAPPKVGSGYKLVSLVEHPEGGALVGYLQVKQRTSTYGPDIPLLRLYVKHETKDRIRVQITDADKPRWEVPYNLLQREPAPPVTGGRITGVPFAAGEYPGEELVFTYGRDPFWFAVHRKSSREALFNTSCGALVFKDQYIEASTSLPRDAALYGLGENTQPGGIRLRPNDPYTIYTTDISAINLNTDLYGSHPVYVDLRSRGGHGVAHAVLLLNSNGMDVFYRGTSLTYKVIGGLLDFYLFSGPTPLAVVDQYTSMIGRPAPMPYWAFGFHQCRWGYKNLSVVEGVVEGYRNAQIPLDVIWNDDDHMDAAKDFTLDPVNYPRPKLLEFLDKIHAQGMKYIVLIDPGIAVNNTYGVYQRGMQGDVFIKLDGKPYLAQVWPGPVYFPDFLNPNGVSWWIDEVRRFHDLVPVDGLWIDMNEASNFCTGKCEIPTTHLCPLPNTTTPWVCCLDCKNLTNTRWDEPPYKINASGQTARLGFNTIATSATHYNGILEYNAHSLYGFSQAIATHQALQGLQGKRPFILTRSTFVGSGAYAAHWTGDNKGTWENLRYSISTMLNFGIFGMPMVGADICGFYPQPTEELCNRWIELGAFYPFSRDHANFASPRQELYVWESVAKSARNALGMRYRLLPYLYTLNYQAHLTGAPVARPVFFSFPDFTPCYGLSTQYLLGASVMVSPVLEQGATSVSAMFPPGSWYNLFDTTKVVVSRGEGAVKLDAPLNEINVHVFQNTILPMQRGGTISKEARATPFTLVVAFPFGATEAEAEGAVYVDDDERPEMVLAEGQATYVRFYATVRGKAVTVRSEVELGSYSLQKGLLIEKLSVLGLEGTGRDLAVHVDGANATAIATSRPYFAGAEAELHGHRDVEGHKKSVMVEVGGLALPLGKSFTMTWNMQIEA
In words: Inhibition against Alpha Glucosidase from rice at 1 mM; (ni=no inhibition).

Experiment [7] is described as follows: Inhibition against Alpha Glucosidase from yeast at 1 mM; (ni=no inhibition).
Experiment [8] in a line: Inhibitory concentration against Beta Glucosidase from Almonds. Further details: species or system Prunus dulcis.
Experiment [9] deals with Prunus dulcis. In words: Inhibition against Beta Glucosidase from Almonds at 1 mM.
Experiment [10] addresses T1, Glucoamylase 1 (Rhizopus oryzae). Description: Percent inhibition against Amyloglucosidase from Rhizopus mold at 1 mM.
Experiment [11] has as its target Glucoamylase (Aspergillus niger) (UniProt P69328). In words: Percent inhibition against Amyloglucosidase from Aspergillus niger at 1 mM concentration.
The target in experiment [12] is Beta-glucosidase A (Caldicellulosiruptor saccharolyticus) (UniProt P10482). In words: Inhibition against Beta Glucosidase from Caldocellum saccharolyticum at 1 mM; (ni=no inhibition).
Beta-glucosidase A (Caldicellulosiruptor saccharolyticus), sequence (P10482 whole entry): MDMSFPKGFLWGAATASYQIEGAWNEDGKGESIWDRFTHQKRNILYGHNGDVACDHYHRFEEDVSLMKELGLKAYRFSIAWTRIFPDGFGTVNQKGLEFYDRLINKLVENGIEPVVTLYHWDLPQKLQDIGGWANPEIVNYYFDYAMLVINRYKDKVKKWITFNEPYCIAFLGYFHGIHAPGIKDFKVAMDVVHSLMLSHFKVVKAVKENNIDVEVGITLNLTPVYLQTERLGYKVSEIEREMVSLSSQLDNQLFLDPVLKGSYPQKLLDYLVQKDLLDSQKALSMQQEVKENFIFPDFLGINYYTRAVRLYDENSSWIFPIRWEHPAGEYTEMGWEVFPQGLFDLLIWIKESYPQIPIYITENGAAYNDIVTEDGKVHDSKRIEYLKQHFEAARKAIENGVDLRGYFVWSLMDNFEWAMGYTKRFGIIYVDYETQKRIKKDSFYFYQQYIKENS
Experiment [13] concerns Prunus dulcis. Description: Inhibition against Beta Glucosidase from Almonds at 1 mM; (ni=no inhibition).
Experiment [14] is described as follows: Inhibitory activity against Beta Glucosidase from Almonds. Set-up: species or system Prunus dulcis.
Experiment [15] concerns the target Beta-glucosidase A (Caldicellulosiruptor saccharolyticus) (UniProt P10482). In words: Percent inhibition against Beta Glucosidase from Caldocellum saccharolyticum at 1 mM.
Experiment [16] addresses T2, Exo-1,4-beta-xylosidase xlnD (Aspergillus niger). Description: Inhibition against Beta-xylosidase from Aspergillus niger at 1 mM concentration.
For experiment [17] the target is unchanged. Description: Percent inhibition against Beta-xylosidase from Aspergillus niger at 1 mM; (ni=no inhibition).
For experiment [18] the target is unchanged. In words: Percent inhibition against Beta-xylosidase from Aspergillus niger at 1 mM.
In experiment [19] the target is T4, Beta-glucosidase A (Caldicellulosiruptor saccharolyticus, UniProt P10482). In words: Inhibitory concentration against Beta Glucosidase from Caldocellum saccharolyticum.
T4 sequence (P10482 whole entry): as above
Experiment [20] deals with T4, Beta-glucosidase A. Description: Inhibitory concentration against Beta Glucosidase Caldocellum saccharolyticum.
A short description of experiment [21]: Percent inhibition against Alpha Glucosidase from yeast at 1 mM.

Turning to `CCCCCCCCNC1C=CC(O)C(O)C1O` (racemic), the IC50 in [1] was 69 µM. Also, the inhibition result in experiment [2], in experiment [4], in experiment [5], in [6] and in experiment [7] was “inactive” each time. Also, in the experiment with Prunus dulcis [3], the inhibition worked out at 85%.
`CCCNC1C=CC(O)C(O)C1O` (racemic) yielded an IC50 in experiment [8] of 66 µM. Also, the figures for the inhibition (in the experiment on Prunus dulcis [9]; in experiment [10]) were 80% and 30%, respectively. Moreover, the inhibition entry in experiment [4], in [5], in experiment [6] and in experiment [7] was “inactive” each time.
Consider `COc1ccc(CNC2C=CC(O)C(O)C2O)cc1` (stereo in doubt), for which the inhibition is 72% in experiment [10], 51% in the experiment with Prunus dulcis [3] and 63% in experiment [11]. In addition, the inhibition entry in experiment [4], in experiment [6], in [7] and in [12] was “inactive” each time.
As for `OC1C=CC(NCc2ccc(Cl)cc2)C(O)C1O` (stereo in doubt), the inhibition in experiment [10] amounted to 72%; in the experiment on Prunus dulcis [3] it was 51%; in [11] it was 45%. For the same compound, the inhibition entry in experiment [4], in experiment [6], in experiment [7] and in [12] was “inactive” in each case.
As for `Oc1ccc(CNC2C=CC(O)C(O)C2O)cc1` (stereo in doubt), the inhibition was found to be 85% in experiment [10], 26% with Prunus dulcis [3] and 94% in [11]. Further, the inhibition entry in experiment [4], in experiment [6], in experiment [7] and in experiment [12] was “inactive” in each case.
Take `Oc1ccccc1CNC1C=CC(O)C(O)C1O` (stereo in doubt): the values for the inhibition in experiment [10] and in [11] were 41% and 42%, respectively. The inhibition result (in [4]; in [6]; in experiment [7]; with Prunus dulcis [13]; in experiment [12]) was “inactive” throughout.
For `OC1C=CC(NCc2ccccc2)C(O)C1O` (stereo in doubt; 4e) [listing 1 of 2 here], the affinity in experiment [14], expressed as Ki, was 10 µM. The compound further showed a 50% inhibitory concentration (IC50) in experiment [8] of 32 µM.
For the compound `OC1C=CC(NCc2ccccc2)C(O)C1O` (stereo in doubt; 4e) [listing 2 of 2 here], the inhibition result in experiment [2], in [5], in experiment [6] and in experiment [7] was “inactive” in each case. The inhibition worked out at 43% in experiment [15], 96% in the experiment with Prunus dulcis [3] and 74% in experiment [16].
As to `Oc1ccc(CNC2C=CC(O)C(O)C2O)cc1` (stereo in doubt; 4f), the inhibition is 56% in [15]; 57% in experiment [10]; 93% in the experiment on Prunus dulcis [3]; 31% in experiment [11]; 67% in [17]. For the same compound, the inhibition result in experiment [6] and in experiment [7] was “inactive” each time.
For the compound `COc1ccc(CNC2C=CC(O)C(O)C2O)cc1` (stereo in doubt; 4g) [listing 1 of 2 here], in experiment [14], affinity was put at a Ki of 25 µM. Further, the concentration for half-maximal inhibition (IC50) in experiment [8] was 52 µM.
With `COc1ccc(CNC2C=CC(O)C(O)C2O)cc1` (stereo in doubt; 4g) [listing 2 of 2 here], the inhibition entry in experiment [2], in experiment [5], in experiment [6] and in experiment [7] was “inactive” throughout. Further, the results for the inhibition (in experiment [15]; with Prunus dulcis [3]; in experiment [18]) were 68%, 95% and 74%, respectively.
Regarding `OC1C=CC(NCc2ccc(Cl)cc2)C(O)C1O` (stereo in doubt; 4h), the results for the concentration for half-maximal inhibition (IC50) (in experiment [8]; against Beta-glucosidase A [19]) were 35 µM and 185 µM, respectively.
In the case of `OC1C=CC(NCc2ccc(-c3ccccc3)cc2)C(O)C1O` (stereo in doubt; 4i), in experiment [14], the Ki is 8 µM. Moreover, the results for the IC50 (in experiment [8]; at Beta-glucosidase A [20]) were 32 µM and 35 µM, respectively.
As to `OC1C=CC(NCc2ccc(Oc3ccccc3)cc2)C(O)C1O` (stereo in doubt; 4j), in experiment [14], the Ki is 13 µM. Further, the concentration for half-maximal inhibition (IC50) in experiment [8] was found to be 43 µM; at Beta-glucosidase A [19], 52 µM.
On to `Oc1ccccc1CNC1C=CC(O)C(O)C1O` (stereo in doubt; 4k), for which the inhibition in [10] worked out at 29%; in [21], 41%. Further, the inhibition entry (in [4]; in experiment [5]; in experiment [6]; in the experiment on Prunus dulcis [13]; in experiment [12]) was “inactive” in each case.
